One substance from patent US20240011038A1, “CYTARABINE-MODIFIED miRNA FOR TREATING CANCER” (Curamir Therapeutics, Inc., priority 2022, published 2024) can be followed below.

Holding throughout (assay type): cell-based
The subject of data set [1] is MV-4-11 acute myeloid leukemia cells. The experiment in a line: Cell viability of MV-4-11 AML cells exposed to modified miRNA mimics (WST-1). To be noted: MV-4-11 cells, vehicle-free transfection, dosage of 5 nM, 6 days; FIG. 3. How it is done: (§1) MV-4-11 (American Type Culture Collection; “ATCC”) AML cells were maintained in Iscove's Modified Dulbecco's Medium (IMDM) (Thermo Fisher Scientific) supplemented with 10% fetal bovine serum (“FBS”; VWR). REH ALL cells (ATCC) were maintained in RPMI-1640 Medium (Thermo Fisher Scientific) supplemented with 10% FBS.
(§2) For transfection with a vehicle, twenty-four hours before transfection, cells were plated in 6 well plates at 1×10^5 cells per well. Cells were transfected with negative control miRNA (Thermo Fisher Scientific), 5-FU miR-15a, or various versions of the ara-C modified miR-15a mimic, using Lipofectamine™ 2000 (Thermo Fisher Scientific) as directed by the manufacturer. MV-4-11 cells were transfected with 15 nM of miRNA and REH cells were transfected with 25 nM of miRNA. Twenty-four hours post-transfection, cells were replated at 2000 cells per well in 96 well plates. […]
(§3) Cell numbers were measured on days 1, 3, and 6 post transfection for cells transfected with Lipofectamine 2000 and on day 6 post transfection for vehicle free transfection, using WST-1 dye (Roche). Briefly, cells were incubated with 10 μl of WST-1 dye per 100 μl of media for 1 hour (REH) or 2 hours (MV-4-11) at 37° C. and absorbance was read at 450 nm and 630 nm. The optical density (“OD”) was calculated by subtracting the absorbance at 630 nm from that at 450 nm. […]
On the technique in general: Tetrazolium dyes change colour on reduction, which living cells bring about.

The subject of data set [2] is REH acute lymphocytic leukemia cells. The experiment in a line: Cell viability of REH ALL cells exposed to modified miRNA mimics (WST-1). The following applies: vehicle-free transfection, 10, 5, 0.5 nM miRNA, day 6, FIG. 5. How it is done: as §1, §2, §3
The subject of another data set is Wee1 gene mRNA. The experiment in a line: Inhibition of Wee1 expression by modified miR-15a (qRT-PCR). The following applies: MV-4-11 cells, lipofection, 15 nM miRNA, 24 h post-transfection, normalized to GAPDH, vs negative control miRNA; FIG. 7. How it is done:
Wee1 is an important cell cycle regulator and a potential target for AML therapy. Wee1 is a direct target of miR-15a with two miR-15a binding sites in the 3′ UTR of Wee1.
For transfection with a vehicle, twenty-four hours before transfection, cells were plated in 6 well plates at 1×10^5 cells per well. Cells were transfected with negative control miRNA (Thermo Fisher Scientific), 5-FU miR-15a, or various versions of the ara-C modified miR-15a mimic, using Lipofectamine™ 2000 (Thermo Fisher Scientific) as directed by the manufacturer. MV-4-11 cells were transfected with 15 nM of miRNA. Twenty-four hours post-transfection, RNA was isolated from cells using TRIzol™ (Thermo Fisher Scientific) reagent following the manufacturer's protocol. Wee1 expression was measured using qRT-PCR and normalized to GAPDH expression and calculated by the double delta threshold cycle (ΔΔCt) method.
(Quantitative PCR measures a nucleic acid by following its amplification.)

As for “5-FU miR-15a: miR-15a mimic with 5-fluorouracil in the guide strand, unmodified passenger strand (FIG. 1F; SEQ ID NO: 1/2) (guide UAGCAGCACAUAAUGGUUUGUG; sense CAGGCCAUAUUGUGCUGCCUCA; 5-fluorouracil in guide strand; misc_feature 1..22 miR-15a guide strand; modified_base 1 OTHER; uracil or 5-fluorouracil; misc_feature 4 cytidine or cytosine arabinoside; misc_feature 7 cytidine or cytosine arabinoside; modified_base 11 OTHER; modified_base 14 OTHER; modified_base 17..19 OTHER; modified_base 21 OTHER; misc_fea; misc_feature 1..22 miR-15a passenger strand; misc_feature 1 cytidine or cytosine arabinoside; misc_feature 5..6 cytidine or cytosine arabinoside; misc_feature 15 cytidine or cytosine arabinoside;)”, the cell killing entry in data set [1] is reported as “killed all cells in 6 days”. Also, the “inhibition of cell viability (percent cell viability)” value in data set [2] was “more effective than ara-C miR-15a”. For the same substance, in the data set on Wee1 gene mRNA, the “Wee1 gene mRNA expression (relative quantity, qRT-PCR)” value is recorded as “able to significantly suppress Wee1 gene mRNA expression”.
